The source of these data is patent publication US20250136556A1, “NOVEL MODULATORS OF THE ARYL HYDROCARBON RECEPTOR AND METHODS OF USE THEREOF” (Allianthera (Suzhou) Biopharmaceutical Co., Ltd., priority 2021, published 2025).

Series [1] deals with T1, Human Aryl Hydrocarbon Receptor (AHR) (Homo sapiens, UniProt P35869).
T1 construct: purchased INDIGO Bioscience IB06001-32; host or cells: AHR Reporter Cell (proprietary kit cells)
T1 sequence (P35869 11-848): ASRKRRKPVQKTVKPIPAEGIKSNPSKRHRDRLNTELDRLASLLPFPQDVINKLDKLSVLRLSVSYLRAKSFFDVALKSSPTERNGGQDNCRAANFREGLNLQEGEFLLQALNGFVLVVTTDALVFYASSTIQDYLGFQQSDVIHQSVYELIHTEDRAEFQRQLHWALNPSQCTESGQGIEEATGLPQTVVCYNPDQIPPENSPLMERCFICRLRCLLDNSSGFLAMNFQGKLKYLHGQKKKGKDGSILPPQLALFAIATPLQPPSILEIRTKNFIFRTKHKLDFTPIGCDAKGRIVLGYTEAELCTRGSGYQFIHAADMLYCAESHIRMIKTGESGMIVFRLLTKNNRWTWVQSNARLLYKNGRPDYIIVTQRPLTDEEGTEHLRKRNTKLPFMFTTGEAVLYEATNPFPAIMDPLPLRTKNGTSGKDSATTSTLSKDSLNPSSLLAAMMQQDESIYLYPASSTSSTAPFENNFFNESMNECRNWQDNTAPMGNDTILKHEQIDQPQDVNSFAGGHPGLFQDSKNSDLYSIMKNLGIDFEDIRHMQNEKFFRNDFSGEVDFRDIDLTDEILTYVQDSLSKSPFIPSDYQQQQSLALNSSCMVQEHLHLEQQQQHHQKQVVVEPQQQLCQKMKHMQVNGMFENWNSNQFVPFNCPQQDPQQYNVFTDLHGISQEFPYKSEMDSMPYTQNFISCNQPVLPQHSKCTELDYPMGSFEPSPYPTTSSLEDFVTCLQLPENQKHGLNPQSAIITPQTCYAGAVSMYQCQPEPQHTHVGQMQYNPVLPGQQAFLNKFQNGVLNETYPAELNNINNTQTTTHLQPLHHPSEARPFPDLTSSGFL
Briefly: AHR agonist reporter assay in human cell line (INDIGO luciferase reporter).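 For all read-outs here: firefly luciferase luminescence read on a plate reader, values normalized against positive and negative controls.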 The series is classed as cell-based. To be noted: reporter cells; for EC50: 24 hours incubation; for AHR % activation to Tapinarof at 1 μM: 24 hours, value in brackets. For orientation: Reporter assays use an easily measured gene product as a stand-in for the process of interest.
Protocol: The AHR reporter assay was performed following the protocol of the Human Aryl Hydrocarbon Receptor (AHR) Reporter Assay System (INDIGO Bioscience, #IB06001-32). AHR Reporter Cell was thawed and pre-incubated in Cell Recovery Medium (CRM) for 6 hours. […] Following 24 hours incubation, the media was removed and Luciferase Detection Reagent (LDR) added. The firefly luciferase activity was quantified using a plate reader. Results were normalized by positive and negative controls.

The test system of series [2] is Human Nuclear Factor (erythroid-derived2)-like 2 (Nrf2). As to the kind of experiment: Nrf2 transcription factor activity reporter assay in human cell line (INDIGO luciferase reporter). The series is classed as cell-based. Conditions: reporter cells; for EC50: 24 hours incubation; for Nrf2 % activation to Tapinarof at 9 μM: 24 hours, value in brackets. How it is done: The Nrf2 reporter assay was performed following the protocol of the Human Nuclear Factor (erythroid-derived2)-like 2 (Nrf2) Reporter Assay System (INDIGO Bioscience, #IB10001). Nrf2 Reporter Cell was thawed and pre-incubated in Cell Recovery Medium (CRM) for 6 hours. The media was then removed and the cells were incubated with Compound Screening Medium (CSM) in the absence (negative control) or presence of increasing concentrations of test compounds (typical dilution: 128 pM, 640 pM, 3.2 nM, 16 nM, 80 nM, 400 nM, […] in duplicates) for 24 hours. For positive control, cells activated with CDDO or Nrf2 agonists described in literature. Following 24 hours incubation, the media was removed and Luciferase Detection Reagent (LDR) added. The firefly luciferase activity was quantified using a plate reader. Results were normalized by positive and negative controls.

For series [3], the system named is IL-6 gene expression in human primary M1 macrophage cells. Briefly: AHR-regulated IL-6 inhibition in human primary M1 macrophage (qPCR). Format: cell-based. To be noted: LPS/IFN-gamma/GM-CSF, 24 hours; for IC50: read-out: M1 assay IL6 -IC50. How it is done:
Human M1 macrophage was differentiated from PBMC. Briefly, at day 1, monocytes were isolated from human PBMC using EasySe Human Monocyte Enrichment Kit without CD16 Depletion (Stemcell, 19058). The isolated monocytes were seeded at 3×10^7 cells in 15 cm dish using 30 ml medium containing 50 ng/ml GM-CSF (R&D, 215-GM-050/CF). At day 5, 30 ml fresh medium containing 50 ng/ml GM-CSF was added. At day 8, 1.5×10^5 cells/well were re-seeded into 24 wells plate, and 500 ul medium containing 10 ng/ml LPS (Sigma, L7770), 20 ng/ml IFN-gamma (PeproTech, 300-02), 50 ng/ml GM-CSF and the test compounds was added. […] The IL-6 expression was inhibited with AHR agonists described in literature as the positive inhibition control, alternatively the un-stimulated cells were used as the negative inhibition control. […] The primers for human GAPDH (F: […]; R: […]) and human IL-6 (F: […]; R: […]) were used to analyze fold expression of IL-6 of GAPDH by quantitative PCR.
On the technique in general: Real-time PCR tracks product formation cycle by cycle.

The subject of series [4] is AHR-regulated gene CYP1A1. As to the kind of experiment: AHR-regulated CYP1A1 expression in human monocytic U937 cell line (qPCR). Conditions: U937 cells, 16 hours, CYP1A1 relative to GAPDH.
Protocol: To evaluate the AHR agonist activity of the test compounds, quantitative PCR analysis was used to determine expression level of the AHR-regulated gene CYP1A1 in a human monocytic U937 cell line. U937 cells were seeded at a concentration of 5×10^5 cells/well in 200 μL of growth medium in 96-well cell culture microplates. CYP1A1 expression was induced with AHR agonists described in literature as a positive control or the test compounds for 16 hours. […] Unstimulated cells were used as the negative control. Taqman probes for human CYP1A1 (Hs01054797_g1) and human GAPDH (Hs02786624_g1) were used to analyze fold expression of CYP1A1 of GAPDH.
[5] abbreviates: first line of cell, read-out: AHR reEC50.
Setting [6] is: second line of cell, read-out: AHR abEC50.
[7] abbreviates: first line of cell, read-out: Nrf2 reEC50.
Setting [8] is: second line of cell, read-out: Nrf2 EC50, second line of cell (head does not name it).

The structures appear in SMILES notation. Where two headings read alike, the source gives them in different places. Some results are limits rather than exact numbers.

As to `CC(C)c1ncc(/C=C/c2ccccc2)cc1O` [Compound 103, (E)-2-isopropyl-5-styrylpyridine-3-ol], the EC50 was 166 nM in series [1] (setting [5]), 241 nM in series [1] (setting [6]), 70.8 nM in series [2] (setting [7]) and 149 nM in series [2] (setting [8]). In series [1], the “AHR % activation to Tapinarof at 1 μM” value came to 69.5%. Besides, the “Nrf2 % activation to Tapinarof at 9 μM” value in series [2] is 78.8%. For the same molecule, the “M1 assay IL6 -max % inhibition (% to no treatment)” value in series [3] was determined as 84.90%. Besides, in series [3], the IC50 (as a rule, the point on the concentration scale where inhibition reaches its midpoint) came to 92.6 nM. The “CYP1A1 (% activation to Tapinarof at 1 μM)” value in series [4] was 34.0%.
Turning to `CC(C)c1c(O)cc(/C=C/c2ccccc2)cc1O` [Tapinarof, reference compound], the “AHR % activation to Tapinarof at 1 μM” value in series [1] came to 100%. For the same molecule, in series [2] (setting [7]), the EC50 is 55 to 75 nM. Also, the “CYP1A1 (% activation to Tapinarof at 1 μM)” value in series [4] is listed as 100%.
`CC(C)c1ncc(-c2cc3ccccc3cn2)cc1O` [Compound 97]: the EC50 in series [1] (setting [5]) was determined as 1620 nM; in series [1] (setting [6]), 569 nM; in series [2] (setting [7]), 249 nM; in series [2] (setting [8]), 501 nM. The “AHR % activation to Tapinarof at 1 μM” value in series [1] came to 62.6%. Moreover, the “Nrf2 % activation to Tapinarof at 9 μM” value in series [2] came to 67.2%. For the same molecule, the “CYP1A1 (% activation to Tapinarof at 1 μM)” value in series [4] is given as 78.9%.
In the case of `CC(C)c1ncc(/C=C/c2ccccc2F)cc1O` [Compound 112, 5-[(E)-2-(2-fluorophenyl)ethenyl]-2-isopropylpyridin-3-ol], in series [1] (setting [6]), the EC50 was 99 nM. In series [2] (setting [8]), the EC50 was 97 nM. Moreover, in series [3], the “M1 assay IL6 -max % inhibition (% to no treatment)” value worked out at 77.90% and the half-maximal inhibitory concentration (IC50) is 1.57 nM.
Take `CC(C)c1c(O)cc(-c2nc3ccccc3o2)cc1O` [Compound 49]: the EC50 in series [1] (setting [5]) stood at 38100 nM; in series [1] (setting [6]), 53.4 nM; in series [2] (setting [7]), 34.9 nM; in series [2] (setting [8]), 73.7 nM. Also, the “AHR % activation to Tapinarof at 1 μM” value in series [1] stood at 104.6%. For the same molecule, the “Nrf2 % activation to Tapinarof at 9 μM” value in series [2] was found to be 69.7%. The “M1 assay IL6 -max % inhibition (% to no treatment)” value in series [3] stood at 90.30%. The concentration for half-maximal inhibition (IC50) in series [3] worked out at 3.14 nM. The “CYP1A1 (% activation to Tapinarof at 1 μM)” value in series [4] was 95.6%.
Turning to `CC(C)c1ncc(-c2ccc3ccccc3n2)cc1O` [Compound 98], the EC50 stood at 176000 nM in series [1] (setting [5]), 403 nM in series [1] (setting [6]), 40 nM in series [2] (setting [7]) and 139 nM in series [2] (setting [8]). Moreover, the “AHR % activation to Tapinarof at 1 μM” value in series [1] is 71.2%. Further, the “Nrf2 % activation to Tapinarof at 9 μM” value in series [2] is 83.6%. Further, the “CYP1A1 (% activation to Tapinarof at 1 μM)” value in series [4] came to 83.6%.
Turning to `CC(C)c1c(O)cc(-c2cnc3ccccc3c2)cc1O` [Compound 48], the EC50 in series [1] (setting [5]) came to 64.3 nM; in series [1] (setting [6]), 57.5 nM; in series [2] (setting [7]), 14.5 nM; in series [2] (setting [8]), 29.6 nM. For the same molecule, the “AHR % activation to Tapinarof at 1 μM” value in series [1] came out at 69.5%. The “Nrf2 % activation to Tapinarof at 9 μM” value in series [2] is given as 84.4%. The “M1 assay IL6 -max % inhibition (% to no treatment)” value in series [3] is 89.60%. For the same molecule, the 50% inhibitory concentration (IC50) in series [3] worked out at 3 nM. In addition, the “CYP1A1 (% activation to Tapinarof at 1 μM)” value in series [4] amounted to 78.4%.
For `COc1cc(-c2nc3ccccc3o2)cc(O)c1C(C)C` [Compound 122, 5-(benzo[d]oxazol-2-yl)-2-isopropyl-3-methoxyphenol], the results for the EC50 in series [1] (setting [5]), in series [1] (setting [6]) and in series [2] (setting [7]) were 254 nM, 395 nM and 2640 nM, respectively. Further, the “AHR % activation to Tapinarof at 1 μM” value in series [1] amounted to 64.4%. In series [2], the “Nrf2 % activation to Tapinarof at 9 μM” value stood at 25.7%. For the same molecule, in series [4], the “CYP1A1 (% activation to Tapinarof at 1 μM)” value came to 39.3%.
Take `CC(C)c1c(O)cc(-c2cc3ccccc3cn2)cc1O` [Compound 46]: the EC50 in series [1] (setting [5]) worked out at 72.7 nM; in series [1] (setting [6]), 39 nM; in series [2] (setting [7]) it was 16.3 nM; in series [2] (setting [8]), 166 nM. Moreover, the “AHR % activation to Tapinarof at 1 μM” value in series [1] stood at 95.8%. The “Nrf2 % activation to Tapinarof at 9 μM” value in series [2] was 69.3%. Further, the “CYP1A1 (% activation to Tapinarof at 1 μM)” value in series [4] was determined as 95.3%.
As for `CC(C)c1ncc(-c2ccc3ccccc3n2)cc1N` [Compound 119, 2-isopropyl-5-(quinolin-2-yl)pyridin-3-amine], the EC50 in series [1] (setting [5]) is 66 nM; in series [2] (setting [7]) it was 125 nM; in series [2] (setting [8]), 129 nM. In addition, in series [1], the “AHR % activation to Tapinarof at 1 μM” value is listed as 16.4%. Also, the “Nrf2 % activation to Tapinarof at 9 μM” value in series [2] came out at 97.8%. Besides, the “CYP1A1 (% activation to Tapinarof at 1 μM)” value in series [4] turned out to be 0.4%.
In the case of `CC(C)c1ncc(-c2nc3ccccc3o2)cc1O` [Compound 100], the EC50 was 21.9 nM in series [1] (setting [5]), greater than 1000 nM in series [1] (setting [6]), 200 nM in series [2] (setting [7]) and 890 nM in series [2] (setting [8]). Moreover, the “AHR % activation to Tapinarof at 1 μM” value in series [1] is 49.7%. Besides, the “Nrf2 % activation to Tapinarof at 9 μM” value in series [2] is 62.3%. For the same molecule, in series [4], the “CYP1A1 (% activation to Tapinarof at 1 μM)” value is listed as 90.5%.
